Measured values from ChEMBL document CHEMBL3885861, “Open TG-GATES”.

Organism: Rattus norvegicus
Experiment: Open TG-GATES - Regimen: Daily Repeat
Format: toxicity, organism-based, Sprague-Dawley
Set-up: regimen Daily Repeat, gender Male, age 6 weeks
Conditions: in vivo, po, 40 mg/kg, route gavage, dose level Low; for APTT / Bas / Eos / Fbg / Hb / Ht / Lym / MCH / MCHC / MCV / Mono / Neu / PT / Plat / RBC / Ret / WBC: tissue Blood; for KIDNEY_L / KIDNEY_R / KIDNEY_TOTAL: tissue Kidney; for LIVER: tissue Liver; for A/G / ALP / ALT / AST / BUN / CRE / Ca / Cl / DBIL / GLC / IP / K / LDH / Na / PL / RALB / TBIL / TC / TG / TP / gamma-GTP: tissue Plasma

Structure (SMILES): Cc1cccc(C)c1OCC(C)N (configuration not stated) [MEXILETINE]
- TERMINAL_BW (72 h, time 3 day): 247.9 g
- APTT (72 h, time 3 day): 21.7 s
- Bas (72 h, time 3 day): 0%
- Eos (72 h, time 3 day): 0.8%
- Fbg (72 h, time 3 day): 327.2 mg/dL
- Hb (72 h, time 3 day): 13 g/dL
- Ht (72 h, time 3 day): 39.6%
- Lym (72 h, time 3 day): 79.8%
- MCH (72 h, time 3 day): 20.3 pg
- MCHC (72 h, time 3 day): 32.7%
- MCV (72 h, time 3 day): 62.1 fL
- Mono (72 h, time 3 day): 3.2%
- Neu (72 h, time 3 day): 15.6%
- PT (72 h, time 3 day): 15.2 s
- Plat (72 h, time 3 day): 118.3 x10_4/uL
- RBC (72 h, time 3 day): 638.4 x10_4/ul
- Ret (72 h, time 3 day): 6.1%
- WBC (72 h, time 3 day): 92 x10_2/uL
- KIDNEY_L (72 h, time 3 day): 1.1 g
- KIDNEY_R (72 h, time 3 day): 1.1 g
- KIDNEY_TOTAL (72 h, time 3 day): 2.1 g
- LIVER (72 h, time 3 day): 12.1 g
- A/G (72 h, time 3 day): 1.3
- ALP (72 h, time 3 day): 1808.2 IU/L
- ALT (72 h, time 3 day): 47.4 IU/L
- AST (72 h, time 3 day): 72.6 IU/L
- BUN (72 h, time 3 day): 16.2 mg/dL
- CRE (72 h, time 3 day): 0.1 mg/dL
- Ca (72 h, time 3 day): 10.5 mg/dL
- Cl (72 h, time 3 day): 105.2 meq/L
- DBIL (72 h, time 3 day): 0 mg/dL
- GLC (72 h, time 3 day): 192.4 mg/dL
- IP (72 h, time 3 day): 7.7 mg/dL
- K (72 h, time 3 day): 4.4 meq/L
- LDH (72 h, time 3 day): 147.4 IU/L
- Na (72 h, time 3 day): 141 meq/L
- PL (72 h, time 3 day): 151 mg/dL
- RALB (72 h, time 3 day): 3.2 g/dL
- TBIL (72 h, time 3 day): 0.006 mg/dL
- TC (72 h, time 3 day): 77.6 mg/dL
- TG (72 h, time 3 day): 133.8 mg/dL
- TP (72 h, time 3 day): 5.6 g/dL
- gamma-GTP (72 h, time 3 day): 1.6 IU/L
- TERMINAL_BW ([…], time 7 day): 275.8 g
- TERMINAL_BW ([…], time 14 day): 338.1 g
- TERMINAL_BW ([…], time 28 day): 397.8 g
- APTT ([…], time 7 day): 22.5 s
- Bas ([…], time 7 day): 0%
- Eos ([…], time 7 day): 1%
- Fbg ([…], time 7 day): 317.4 mg/dL
- Hb ([…], time 7 day): 13 g/dL
- Ht ([…], time 7 day): 39.9%
- Lym ([…], time 7 day): 81%
- MCH ([…], time 7 day): 20.4 pg
- MCHC ([…], time 7 day): 32.5%
- MCV ([…], time 7 day): 62.8 fL
- Mono ([…], time 7 day): 2.4%
- Neu ([…], time 7 day): 15%
- PT ([…], time 7 day): 16 s
- Plat ([…], time 7 day): 107.4 x10_4/uL
- RBC ([…], time 7 day): 634.4 x10_4/ul
- Ret ([…], time 7 day): 6.2%
- WBC ([…], time 7 day): 105.8 x10_2/uL
- APTT ([…], time 14 day): 20.9 s
- Bas ([…], time 14 day): 0%
- Eos ([…], time 14 day): 0.4%
- Fbg ([…], time 14 day): 302.8 mg/dL
- Hb ([…], time 14 day): 13.1 g/dL
- Ht ([…], time 14 day): 40.8%
- Lym ([…], time 14 day): 80.4%
- MCH ([…], time 14 day): 20.6 pg
- MCHC ([…], time 14 day): 32.1%
- MCV ([…], time 14 day): 64.2 fL
- Mono ([…], time 14 day): 2.2%
- Neu ([…], time 14 day): 16%
- PT ([…], time 14 day): 15.9 s
- Plat ([…], time 14 day): 119 x10_4/uL
- RBC ([…], time 14 day): 634.2 x10_4/ul
- Ret ([…], time 14 day): 7.8%
- WBC ([…], time 14 day): 92.2 x10_2/uL
- APTT ([…], time 28 day): 22.8 s
- Bas ([…], time 28 day): 0%
- Eos ([…], time 28 day): 1%
- Fbg ([…], time 28 day): 323.4 mg/dL
- Hb ([…], time 28 day): 14.9 g/dL
- Ht ([…], time 28 day): 43.2%
- Lym ([…], time 28 day): 79.8%
- MCH ([…], time 28 day): 19.4 pg
- MCHC ([…], time 28 day): 34.5%
- MCV ([…], time 28 day): 56.3 fL
- Mono ([…], time 28 day): 2.4%
- Neu ([…], time 28 day): 15.6%
- PT ([…], time 28 day): 15.9 s
- Plat ([…], time 28 day): 101.8 x10_4/uL
- RBC ([…], time 28 day): 766.6 x10_4/ul
- Ret ([…], time 28 day): 2.8%
- WBC ([…], time 28 day): 104.7 x10_2/uL
- KIDNEY_L ([…], time 7 day): 1.1 g
- KIDNEY_R ([…], time 7 day): 1.1 g
- KIDNEY_TOTAL ([…], time 7 day): 2.2 g
- KIDNEY_L ([…], time 14 day): 1.3 g
- KIDNEY_R ([…], time 14 day): 1.3 g
- KIDNEY_TOTAL ([…], time 14 day): 2.6 g
- KIDNEY_L ([…], time 28 day): 1.4 g
- KIDNEY_R ([…], time 28 day): 1.4 g
- KIDNEY_TOTAL ([…], time 28 day): 2.9 g
- LIVER ([…], time 7 day): 12.7 g
- LIVER ([…], time 14 day): 15.2 g
- LIVER ([…], time 28 day): 17.1 g
- A/G ([…], time 7 day): 1.2
- ALP ([…], time 7 day): 1628.6 IU/L
- ALT ([…], time 7 day): 47.8 IU/L
- AST ([…], time 7 day): 72.4 IU/L
- BUN ([…], time 7 day): 19.6 mg/dL
- CRE ([…], time 7 day): 0.2 mg/dL
- Ca ([…], time 7 day): 10.6 mg/dL
- Cl ([…], time 7 day): 105.6 meq/L
- DBIL ([…], time 7 day): 0 mg/dL
- GLC ([…], time 7 day): 190 mg/dL
- IP ([…], time 7 day): 7.2 mg/dL
- K ([…], time 7 day): 4 meq/L
- LDH ([…], time 7 day): 162.8 IU/L
- Na ([…], time 7 day): 143.2 meq/L
- PL ([…], time 7 day): 145.2 mg/dL
- RALB ([…], time 7 day): 3 g/dL
- TBIL ([…], time 7 day): 0.002 mg/dL
- TC ([…], time 7 day): 82 mg/dL
- TG ([…], time 7 day): 108.8 mg/dL
- TP ([…], time 7 day): 5.6 g/dL
- gamma-GTP ([…], time 7 day): 1.8 IU/L
- A/G ([…], time 14 day): 1.1
- ALP ([…], time 14 day): 1520 IU/L
- ALT ([…], time 14 day): 43.4 IU/L
- AST ([…], time 14 day): 69.6 IU/L
- BUN ([…], time 14 day): 18.6 mg/dL
- CRE ([…], time 14 day): 0.2 mg/dL
- Ca ([…], time 14 day): 10.5 mg/dL
- Cl ([…], time 14 day): 106.8 meq/L
- DBIL ([…], time 14 day): 0 mg/dL
- GLC ([…], time 14 day): 196.8 mg/dL
- IP ([…], time 14 day): 6.8 mg/dL
- K ([…], time 14 day): 4.2 meq/L
- LDH ([…], time 14 day): 154.2 IU/L
- Na ([…], time 14 day): 141.4 meq/L
- PL ([…], time 14 day): 152.8 mg/dL
- RALB ([…], time 14 day): 3 g/dL
- TBIL ([…], time 14 day): 0.002 mg/dL
- TC ([…], time 14 day): 80.4 mg/dL
- TG ([…], time 14 day): 136.8 mg/dL
- TP ([…], time 14 day): 5.9 g/dL
- gamma-GTP ([…], time 14 day): 2.4 IU/L
- A/G ([…], time 28 day): 1
- ALP ([…], time 28 day): 1106 IU/L
- ALT ([…], time 28 day): 37.8 IU/L
- AST ([…], time 28 day): 62.4 IU/L
- BUN ([…], time 28 day): 17.6 mg/dL
- CRE ([…], time 28 day): 0.2 mg/dL
- Ca ([…], time 28 day): 10.5 mg/dL
- Cl ([…], time 28 day): 106 meq/L
- DBIL ([…], time 28 day): 0 mg/dL
- GLC ([…], time 28 day): 197.2 mg/dL
- IP ([…], time 28 day): 6.5 mg/dL
- K ([…], time 28 day): 3.8 meq/L
- LDH ([…], time 28 day): 154.6 IU/L
- Na ([…], time 28 day): 142.8 meq/L
- PL ([…], time 28 day): 146.4 mg/dL
- RALB ([…], time 28 day): 3.1 g/dL
- TBIL ([…], time 28 day): 0.014 mg/dL
- TC ([…], time 28 day): 67.8 mg/dL
- TG ([…], time 28 day): 174.2 mg/dL
- TP ([…], time 28 day): 6.1 g/dL
- gamma-GTP ([…], time 28 day): 2.4 IU/L
